According to patent US9765037B2, “Compositions and methods for treating toxoplasmosis, cryptosporidiosis, and other apicomplexan protozoan related diseases” (University of Washington Through its Center for …, priority 2010, dated 2017):
Values after ≈ are worked out from the molar mass of the structure shown. Like-named read-outs stand apart in the source and are kept apart here. One block for each molecule: values may come before it.

Key:
[1] = test system: colorectal carcinoma (HC 2998); experiment: Growth inhibition of human cell line HC 2998; conditions: for GI50: read-out: GI50 (μM) HCC2998
[2] = molecular target: SRC (Homo sapiens (Human), UniProt P12931); conditions: for IC50: read-out: IC50 (μM) Src
[3] = test system: human lymphocyte (CRL8155); experiment: Growth inhibition of human cell line CRL8155; conditions: for GI50: read-out: GI50 (μM) CRL8155
[4] = molecular target: SrcKD (Homo sapiens (Human), UniProt P12931); experiment: Tyrosine kinase IC50, SrcKD; format: biochemical
[5] = molecular target: CpCDPK1 (Cryptosporidium parvum (strain Iowa II), UniProt A3FQ16); experiment: biochemical; format: biochemical
[6] = test system: human promyelocytic leukemia (HL-60); experiment: Growth inhibition of human cell line HL-60; conditions: for GI50: read-out: GI50 (μM) HL60
[7] = test system: glioma derived (SF539); experiment: Growth inhibition of human cell line SF539; conditions: for GI50: read-out: GI50 (μM) SF539
[8] = molecular target: PfCDPK4 (Plasmodium falciparum (isolate 3D7), UniProt Q8IBS5); experiment: biochemical
[9] = molecular target: ABL (Homo sapiens (Human), UniProt P00519); format: biochemical
[10] = molecular target: HckKD (Homo sapiens (Human), UniProt P08631); experiment: Tyrosine kinase IC50, HckKD; format: biochemical; conditions: Table 9
[11] = molecular target: AblKD (Homo sapiens (Human), UniProt P00519); experiment: Tyrosine kinase IC50, AblKD; format: biochemical; conditions: Table 9
[12] = molecular target: PfCDPK1 (Plasmodium falciparum (isolate 3D7), UniProt P62344); experiment: biochemical
[13] = in vivo; conditions: mouse, ip
[14] = molecular target: Src3D (Homo sapiens (Human), UniProt P12931); experiment: biochemical
[15] = Blood levels after oral gavage dosing of mice (LC-MS); conditions: for AUC / Cmax / Tmax / concentration at 17 h: mouse, po; for Blood level, First Peak / Blood level, Fourth D4 Peak / Blood level, First Trough: mice, 40 mg/kg oral gavage 3x daily for 4 days, mean±SD, N=3; for Blood level, First Peak: 1 hr after first dose; for Blood level, Fourth D4 Peak: 1 hr after third dose of d4; for Blood level, First Trough: 17 hours after dosing, beginning of d2; for concentration at 17 h: 40 mg/kg
[16] = test system: P. berghei expressing GFP; experiment: P. berghei transmission from treated mice to A. stephensi; conditions: for formation of oocysts in A. stephensi fed on treated mice: mice treated i.p., Compound 29 at 10 mg/kg, mosquitoes fed 30 minutes after dosing
[17] = test system: P. berghei expressing PfCDPK4-2x-myc; experiment: Exflagellation in blood of treated mice infected with P. berghei expressing PfCDPK4-2x-myc; format: in vivo, Plasmodium berghei
[18] = Solubility in buffers of various pH; format: physicochemical; conditions: buffer
[19] = test system: C. parvum; experiment: Immunosuppressed (SCID-beige) mouse C. parvum model; format: in vivo, Cryptosporidium parvum; conditions: SCID-beige mice; oral gavage once a day, days 3-7 and 10-14; 29 and 150 at 50 mg/kg/day, Paromomycin 2 g/kg/day
Method: Shown are mean of the parasite numbers detected in 25 mg of stool from each mouse, by qRT-PCR.

[20] = mouse, in vivo, ip, 50 mg/kg
[21] = test system: human fibroblast; experiment: Human fibroblast replication / cytotoxicity (Alamar blue); format: cell-based
[22] = test system: glioma derived (SF539); conditions: human
[23] = molecular target: Abl3D (Homo sapiens, UniProt P00519); experiment: Tyrosine kinase IC50, Abl3D; format: biochemical; conditions: Table 9
[24] = Table 8, read-out: IC50 (μM) CpCDPK1
[25] = pH 6.5, aqueous buffer, read-out: Experimental Solubility pH 6.5

Compound: CC(C)(C)n1nc(-c2cccc3ccccc23)c2c(N)ncnc21 [Compound 1, 1-tert-butyl-3-(naphthalen-1-yl)-1H-pyrazolo[3,4-d]pyrimidin-4-amine]
- GI50 ([1]; human cell line HCC2998): > 10 µM
- inhibition of SRC (in words) [2]: do not potently inhibit
- IC50 [2]: 1.3 µM
- GI50 ([3]; human cell line CRL8155): > 10 µM
- IC50 [4]: 1.3 µM
- IC50 ([5]; read-out: IC50 (μM) CpCDPK1): > 3 µM
- GI50 ([6]; human cell line HL60): > 10 µM
- GI50 ([7]; human cell line SF539): > 10 µM

Compound: Nc1ncnc2c1c(Cc1cccc3ccccc13)nn2CC1CCNCC1 [Compound 5h, 3-(naphthalen-1-ylmethyl)-1-(piperidin-4-ylmethyl)-1H-pyrazolo[3,4-d]pyrimidin-4-amine]
- EC50 [8]: 154 nM
- Cell Toxicity HCC2998, % at 10 μM [1]: <30% at 10 μM
- GI50 ([1]; human cell line HCC2998): > 10 µM
- IC50 [9]: > 20 µM
- IC50 [10]: > 10 µM
- IC50 [2]: > 20 µM
- IC50 [11]: > 20 µM
- Cell Toxicity CRL8155, % at 10 μM [3]: <30% at 10 μM
- GI50 ([3]; human cell line CRL8155): > 10 µM
- IC50 ([4]; Table 9): > 20 µM
- Cell Toxicity HL60, % at 10 μM [6]: <30% at 10 μM
- GI50 ([6]; human cell line HL60): > 10 µM
- Cell Toxicity SF539, % at 10 μM [7]: <30% at 10 μM
- GI50 ([7]; human cell line SF539): > 10 µM

Compound: COc1ccc2cc(-c3nn(C(C)C)c4ncnc(N)c34)ccc2c1 [Compound 7q, 1-isopropyl-3-(6-methoxynaphthalen-2-yl)-1H-pyrazolo[3,4-d]pyrimidin-4-amine]
- EC50 [8]: 41.4 nM
- EC50 [12]: 208 nM
- Cell Toxicity HCC2998, % at 10 μM [1]: <30% at 10 μM
- GI50 [1]: > 10 µM
- IC50 [10]: 0.375 µM
- IC50 [2]: 0.77 µM
- AUC [13]: 4.6 µM·h
- Cmax [13]: 3800 nM
- Tmax [13]: 0.5 h
- Cell Toxicity CRL8155, % at 10 μM [3]: <30% at 10 μM
- GI50 [3]: > 10 µM
- IC50 [14]: 576 nM
- IC50 [4]: 0.77 µM
- IC50 ([5]; read-out: IC50 (μM) CpCDPK1): 0.005 µM
- Cell Toxicity HL60, % at 10 μM [6]: <30% at 10 μM
- GI50 [6]: > 10 µM
- AUC ([15]; in vivo): 35.3 µM·h
- Cmax ([15]; in vivo): 19700 nM
- Tmax ([15]; in vivo): 0.5 h
- Cell Toxicity SF539, % at 10 μM [7]: <30% at 10 μM
- GI50 [7]: > 10 µM

Compound: CC(C)n1nc(-c2cc3ccccc3[nH]2)c2c(N)ncnc21 [Compound 24, 3-(1H-indol-2-yl)-1-isopropyl-1H-pyrazolo[3,4-d]pyrimidin-4-amine]
- EC50 [8]: 337 nM
- EC50 [12]: 471 nM
- IC50 [14]: 1450 nM
- IC50 [5, 24]: 0.0704 µM

Compound: CC(C)n1nc(-c2cc3c(Cl)cccc3[nH]2)c2c(N)ncnc21 [Compound 26, 3-(4-chloro-1H-indol-2-yl)-1-isopropyl-1H-pyrazolo[3,4-d]pyrimidin-4-amine]
- EC50 [8]: 544 nM
- Cell Toxicity CRL8155, % at 10 μM [3]: 38% toxicity at
- IC50 [14]: 1240 nM
- IC50 [5, 24]: 0.0162 µM
- Cell Toxicity HL60, % at 10 μM [6]: 45% toxicity at

Compound: CCOc1ccc2cc(-c3nn(CC4CCNCC4)c4ncnc(N)c34)ccc2c1 [Compound 29, 3-(6-ethoxynaphthalen-2-yl)-1-(piperidin-4-ylmethyl)-1H-pyrazolo[3,4-d]pyrimidin-4-amine]
- formation of oocysts in A. stephensi fed on treated mice [16]: completely blocked the formation of oocysts
- impact on asexual parasitaemia or gametocyte rates ([16]; mice, 10 mg/kg i.p.): no impact
- exflagellation 20 hours after dosing ([17]; 50 mg/kg i.p.): some exflagellation was observed
- exflagellation in blood samples from treated mice ([17]; 50 mg/kg i.p., 30 minutes post-injection and up to 14 hours later): completely suppressed exflagellation
- exflagellation in treated mice ([17]; mice, 10 mg/kg i.p.): sufficient to block exflagellation
- duration of complete suppression of exflagellation ([17]; mice, 50 mg/kg i.p.): 14 h
- EC50 [12]: 353 nM
- Cell Toxicity HCC2998, % at 10 μM [1]: <30% at 10 μM
- solubility ([18]; aqueous buffer, pH 2.0, read-out: Experimental Solubility pH 2.0): 34 µM (≈ 13.7 µg/mL)
- solubility [18, 25]: 47 µM (≈ 18.9 µg/mL)
- solubility ([18]; pH 7.4, aqueous buffer, read-out: Experimental Solubility pH 7.4): 49 µM (≈ 19.7 µg/mL)
- IC50 [10]: > 10 µM
- parasite burden rebound after treatment [19]: slowly
- parasites in stool (qRT-PCR) at the end of treatment [19]: not detected
- AUC ([13]; 10 mg/kg): 3.18 µM·h
- Cmax ([13]; 10 mg/kg): 700 nM
- Tmax ([13]; 10 mg/kg): 0.5 h
- AUC ([13]; 50 mg/kg): 29.5 µM·h
- Cmax ([13]; 50 mg/kg): 8200 nM
- Tmax ([13]; 50 mg/kg): 0.5 h
- concentration at 20 h ([13]; 50 mg/kg): 410 nM
- IC50 [11]: > 20 µM
- Cell Toxicity CRL8155, % at 10 μM [3]: <30% at 10 μM
- peak plasma concentration [20]: 8.2 µM
- plasma levels for 20 hours post-treatment [20]: exceeding 0.4 μM
- IC50 ([4]; Table 9): > 20 µM
- IC50 [5, 24]: 0.0035 µM
- IC50 ([5]; read-out: Enzymatic Assay IC50 CpCDPK1): 0.001 µM
- Cell Toxicity HL60, % at 10 μM [6]: <30% at 10 μM
- Blood level, First Peak [15]: 50 ± 80 nM
- Blood level, Fourth D4 Peak [15]: 6600 ± 1600 nM
- Blood level, First Trough [15]: 0 ± 0 nM
- concentration at 17 h ([15]; blood): 0 nM
- AUC ([15]; in vivo): 20 µM·h
- Cmax ([15]; in vivo): 6640 nM
- Tmax ([15]; in vivo): 2 h
- AUC ([15]; in vivo, 10 mg/kg): 0.95 µM·h
- Cmax ([15]; in vivo, 10 mg/kg): 200 nM
- Tmax ([15]; in vivo, 10 mg/kg): 2.33 h
- AUC ([15]; in vivo, 50 mg/kg): 5.18 µM·h
- Cmax ([15]; in vivo, 50 mg/kg): 1100 nM
- Tmax ([15]; in vivo, 50 mg/kg): 2.67 h
- Cell Toxicity SF539, % at 10 μM [7]: <30% at 10 μM

Compound: Nc1ncnc2c1c(-c1ccc3cc(OCc4ccccc4)ccc3c1)nn2CC1CCNCC1 [Compound 34, 3-(6-(benzyloxy)naphthalen-2-yl)-1-(piperidin-4-ylmethyl)-1H-pyrazolo[3,4-d]pyrimidin-4-amine]
- EC50 [8]: 30.2 nM
- Observed HFF Toxicity (T at concentration) [21]: T at 100 μM
- Cell Toxicity LD50 SF539 [22]: 6 µM
- EC50 [12]: 27.2 nM
- Cell Toxicity HCC2998, % at 10 μM [1]: 30% at 10 μM
- solubility [18, 25]: 23 µM (≈ 10.7 µg/mL)
- IC50 [10]: 1.61 µM
- Cell Toxicity CRL8155, % at 10 μM [3]: <30% at 10 μM
- Cell Toxicity HL60, % at 10 μM [6]: <30% at 10 μM
- Cell Toxicity SF539, % at 10 μM [7]: 104%

- IC50 [23]: ~10 µM
- IC50 ([4]; Table 9): > 10 µM
Compound: Nc1nc2ccc(C(=O)c3ccccc3)cc2[nH]1 [Compound 92]

Compound: CCOc1ccc2cc(-c3nn(CC4CCN(C)CC4)c4ncnc(N)c34)ccc2c1 [Compound 150, 3-(6-ethoxynaphthalen-2-yl)-1-((1-methylpiperidin-4-yl)methyl)-1H-pyrazolo[3,4-d]pyrimidin-4-amine]
- EC50 [8]: 33.7 nM
- IC50 [8]: 10 nM
- Observed HFF Toxicity (T at concentration) [21]: T at 25 μM
- parasites in stool (qRT-PCR) at the end of treatment [19]: not detected
- IC50 [11]: > 3 µM
- Cell Toxicity CRL8155, % at 10 μM [3]: <30% at 10 μM
- Cell Toxicity CRL8155, % at 30 μM ([3]; 30 μM): <30% at 30 μM
- IC50 ([4]; Table 9): > 10 µM
- Cell Toxicity HL60, % at 10 μM [6]: <30% at 10 μM
- Cell Toxicity HL60, % at 30 μM ([6]; 30 μM): <30% at 30 μM
- Blood level, First Peak [15]: 2100 ± 1200 nM
- Blood level, Fourth D4 Peak [15]: 8900 ± 3400 nM
- Blood level, First Trough [15]: 2000 ± 1600 nM
- Cmax ([15]; in vivo, 10 mg/kg): 800 nM
- Tmax ([15]; in vivo, 10 mg/kg): 2.15 h
- concentration at 17 h ([15]; in vivo): 6300 ± 1800 nM

Compound: CC(C)(C)n1nc(-c2ccc3ccccc3c2)c2c(N)ncnc21 [NA-PP2, reference compound]
- formation of oocysts in A. stephensi fed on treated mice [16]: hundreds of oocysts per mosquito
